Assay results as given in ChEMBL document CHEMBL1136509, “Structure-activity relationships of novel anti-malarial agents: part 5. N-(4-acylamino-3-benzoylphenyl)-[5-(4-nitrophenyl)-2-furyl]acrylic acid amides” (Bioorg Med Chem Lett, 2003).

system: Plasmodium falciparum; assay: Inhibitory activity against Plasmodium falciparum Dd2 in erythrocytes by semiautomated micro dilution; type: functional, organism-based

Row | SMILES | IC50
1 | O=C(/C=C/c1ccc(-c2ccc([N+](=O)[O-])cc2)o1)Nc1ccc(NC(=O)Cc2ccccc2C(F)(F)F)c(C(=O)c2ccccc2)c1 | 1 µM
2 | O=C(/C=C/c1ccc(-c2ccc([N+](=O)[O-])cc2)o1)Nc1ccc(NC(=O)Cc2ccccc2Br)c(C(=O)c2ccccc2)c1 | 1 µM
3 | O=C(/C=C/c1ccc(-c2ccc([N+](=O)[O-])cc2)o1)Nc1ccc(NC(=O)c2ccc(Cl)cc2)c(C(=O)c2ccccc2)c1 | 2.5 µM
4 | O=C(/C=C/c1ccc(-c2ccc([N+](=O)[O-])cc2)o1)Nc1ccc(NC(=O)Cc2ccc3ccccc3c2)c(C(=O)c2ccccc2)c1 | 0.21 µM
5 | Cc1cccc(CC(=O)Nc2ccc(NC(=O)/C=C/c3ccc(-c4ccc([N+](=O)[O-])cc4)o3)cc2C(=O)c2ccccc2)c1 | 0.15 µM
6 | Cc1ccccc1CC(=O)Nc1ccc(NC(=O)/C=C/c2ccc(-c3ccc([N+](=O)[O-])cc3)o2)cc1C(=O)c1ccccc1 | 0.65 µM
7 | O=C(/C=C/c1ccc(-c2ccc([N+](=O)[O-])cc2)o1)Nc1ccc(NC(=O)c2cccc3ccccc23)c(C(=O)c2ccccc2)c1 | 0.77 µM
8 | O=C(/C=C/c1ccc(-c2ccc([N+](=O)[O-])cc2)o1)Nc1ccc(NC(=O)Cc2ccc(Cl)cc2)c(C(=O)c2ccccc2)c1 | 0.064 µM
9 | O=C(/C=C/c1ccc(-c2ccc([N+](=O)[O-])cc2)o1)Nc1ccc(NC(=O)Cc2ccc(-c3ccccc3)cc2)c(C(=O)c2ccccc2)c1 | 1 µM
10 | O=C(/C=C/c1ccc(-c2ccc([N+](=O)[O-])cc2)o1)Nc1ccc(NC(=O)Cc2ccccc2)c(C(=O)c2ccccc2)c1 | 0.27 µM
11 | COc1ccc(CC(=O)Nc2ccc(NC(=O)/C=C/c3ccc(-c4ccc([N+](=O)[O-])cc4)o3)cc2C(=O)c2ccccc2)cc1 | 0.32 µM
12 | O=C(/C=C/c1ccc(-c2ccc([N+](=O)[O-])cc2)o1)Nc1ccc(NC(=O)Cc2ccc(C(F)(F)F)cc2)c(C(=O)c2ccccc2)c1 | 0.047 µM
13 | O=C(/C=C/c1ccc(-c2ccc([N+](=O)[O-])cc2)o1)Nc1ccc(NC(=O)C(c2ccccc2)c2ccccc2)c(C(=O)c2ccccc2)c1 | 5.5 µM
14 | O=C(/C=C/c1ccc(-c2ccc([N+](=O)[O-])cc2)o1)Nc1ccc(NC(=O)Cc2cccc3ccccc23)c(C(=O)c2ccccc2)c1 | 0.25 µM
15 | O=C(/C=C/c1ccc(-c2ccc([N+](=O)[O-])cc2)o1)Nc1ccc(NC(=O)Cc2ccc(Br)cc2)c(C(=O)c2ccccc2)c1 | 0.07 µM
16 | O=C(/C=C/c1ccc(-c2ccc([N+](=O)[O-])cc2)o1)Nc1ccc(NC(=O)Cc2ccc([N+](=O)[O-])cc2)c(C(=O)c2ccccc2)c1 | 1.4 µM
17 | O=C(/C=C/c1ccc(-c2ccc([N+](=O)[O-])cc2)o1)Nc1ccc(NC(=O)c2ccccc2)c(C(=O)c2ccccc2)c1 | 3 µM
18 | CC(C(=O)Nc1ccc(NC(=O)/C=C/c2ccc(-c3ccc([N+](=O)[O-])cc3)o2)cc1C(=O)c1ccccc1)c1ccccc1 (stereo not given) | 0.5 µM
19 | O=C(/C=C/c1ccc(-c2ccc([N+](=O)[O-])cc2)o1)Nc1ccc(NC(=O)c2ccc3ccccc3c2)c(C(=O)c2ccccc2)c1 | 2.5 µM
20 | O=C(/C=C/c1ccc(-c2ccc([N+](=O)[O-])cc2)o1)Nc1ccc(NC(=O)Cc2ccc(F)cc2)c(C(=O)c2ccccc2)c1 | 0.23 µM
